Experimental data taken from patent publication US20130158112A1, “COMPOSITIONS AND METHODS FOR INHIBITING BETA AMYLOID SECRETION” (priority 2011, published 2013).
Values joined by “and” are separate entries in the source; they are usually repeats but may differ in a detail not shown here. Equal values may be shown once. “Also recorded” adds a separate entry of the source.

Key:
Aβ secretion [1] = test: Secreted total Aβ ELISA in conditioned media of H4βAPP695 wt cells; type: cell-based, human; conditions: H4βAPP695 wt cells
Method in brief: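 H4 […] cells stably expressing wild-type βAPP695 (CMV promoter), serum-starved 24 h, then exposed to drug in DMSO or vehicle for 24 h before Aβ in conditioned media was measured. Primary cortical neurons came from E18 APPswe/PSEN1dE9 mice on C57BL/6 background.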

Aβ secretion [2] = test: Secreted Aβ in cultured primary neurons from APP/PS1 transgenic mice; type: cell-based, mouse; conditions: 24 h incubation
Experimental: H4βAPP695 wt cells, a human […] cell line stably transfected with a wtβAPP695 expression vector construct under the control of a CMV promoter (kindly provided by Dr. Chris Eckman from Mayo Clinic, Florida) were cultured as previously described. Twenty-four hours before drug treatment, the media was replaced with serum-free media. Cells were then incubated with drugs (dissolved in DMSO) or vehicle for 24 h for collection of conditioned media and cell lysates. For the PKC inhibitors experiment, three inhibitors were treated 30 min prior to drug challenge. Primary cortical neurons were prepared from embryonic day 18 APP and presenilin 1 (APPswe, PSEN1dE9) transgenic mice on the C57BL/6 genetic background (Jackson Laboratories, strain no. 5864) as previously described. THLE-3 human hepatoma cells (from ATCC) were plated in 24-well plates that were precoated with 10 μg/mL bovine serum albumin, 10 μg/mL fibronectin, and 30 μg/mL bovine type I collagen. […] Transepithelial resistance was measured in each well and found to be >160 Ω/cm^2. […] Four hours later, the basal chamber media was harvested and used to measure lucifer yellow fluorescence to confirm monolayer integrity as well as for treatment of H4βAPP695 wt cells for 24 h prior to analysis of secreted Aβ, which was compared to the effect of direct addition of 10 μM of the corresponding drug.

APP [3] = test: Western blot of APP processing products (sAPPα, sAPPβ, holoAPP, αCTF) in H4βAPP695 wt cells; type: cell-based, human; conditions: 10 μM, 24 h
Experimental: The alternate processing of holoAPP by either the β-secretase (a precursor to Aβ production) or α-secretase (which clips in the middle of the Aβ region) is shown in FIG. 2A. Compound 1 induced decrease in total Aβ secretion may be due to its effect on APP processing or due to decreased production of its precursor APP. To probe its mechanism, H4βAPP695 wt cells were treated with 10 μM 1 for 24 h. Using Western blot assays, we measured secreted APPα (sAPPα) and APPβ (sAPPβ) in the conditioned media, and full-length holo-APP and the 83 residue long α-C-terminal fragment (α-CTF) in cell lysate. […] Thus, 1 appears to decrease Aβ secretion by activating the α-secretase pathway, a favorable pathway as the large secreted sAPPα protein is reported to have neurotrophic and neuroprotective activities.

α-secretase = test: α-Secretase activity, compound added directly to cell lysates; type: biochemical, human; conditions: added to lysates rather than live cells
Experimental: H4βAPP695 wt were treated with vehicle or 1 for 24 h, washed with ice cold PBS, and lysed in extraction buffer provided with the α-secretase assay kit (R&D Systems) for 10 min on ice and centrifuged at 10000 g for 1 min to remove nuclei. Protein content of the supernatant was determined by the BCA assay, and 50 μg of lysate protein were added to wells of a 96-well assay plate and the volume was adjusted to 100 μL using the lysis buffer. 100 μL of reaction buffer and 10 μL of the fluorogenic substrate were added, and the plates were incubated at 37° C. in the dark with gentle agitation for 2 h. Activity was detected in a fluorescence plate reader using an excitation of 355 nm and an emission of 510 nm after subtraction of fluorescence in the absence of cell lysate.
We measured the activity of α-secretase using a fluorogenic peptide substrate in lysates of H4βAPP695 wt cells. […] However, addition of compound 1 directly to the cell lysates, rather than to the live cells, had no effect on α-secretase activity (data not shown), implying an indirect cellular activation of this pathway rather than direct activation of the α-secretase protease by compound 1.

ADAM9 = test: Western blot of pro and active ADAM9 in H4βAPP695 wt cells; type: cell-based, human; conditions: 24 h
Experimental: (§1) Several members of the ADAM (a disintegrin and metalloproteinase) family, ADAM9, ADAM10, and ADAM17, have been reported to have α-secretase activity. […] Using antibodies specific for these three ADAM proteases, we assessed the levels of the pro and active forms in cells cultured with increasing concentrations of compound 1. […] At the 10 μM dose of compound 1, we observed a 31% increase in the ratio of active/pro ADAM9 (p<0.05), N=3 each control and compound 1) and a 42% increase in the ratio active/pro ADAM10 (p<0.05). Although the direct target for compound 1 has not been identified, it seems likely that its mechanism is via the increased ADAM 9 and ADAM10 processing into active α-secretase, which cleaves APP in a manner that precludes Aβ production.

ADAM17 = test: Western blot of pro and active ADAM17 in H4βAPP695 wt cells; type: cell-based, human; conditions: increasing concentrations, 24 h
Experimental: as §1

Aβ secretion [4] = test: PKC inhibitors experiment on Aβ secretion; type: cell-based, human
Experimental: (§2) H4βAPP695 wt cells, a human […] cell line stably transfected with a wtβAPP695 expression vector construct under the control of a CMV promoter (kindly provided by Dr. Chris Eckman from Mayo Clinic, Florida) were cultured as previously described. Twenty-four hours before drug treatment, the media was replaced with serum-free media. Cells were then incubated with drugs (dissolved in DMSO) or vehicle for 24 h for collection of conditioned media and cell lysates. For the PKC inhibitors experiment, three inhibitors were treated 30 min prior to drug challenge. Primary cortical neurons were prepared from embryonic day 18 APP and presenilin 1 (APPswe, PSEN1dE9) transgenic mice on the C57BL/6 genetic background (Jackson Laboratories, strain no. 5864) as previously described. THLE-3 human hepatoma cells (from ATCC) were plated in 24-well plates that were precoated with 10 μg/mL bovine serum albumin, 10 μg/mL fibronectin, and 30 μg/mL bovine type I collagen. The cells were grown in BEGM media (Clonetics) until confluent and treated with drugs at 20 μM for 24 h. This conditioned media was harvested, diluted 1:1 in serum-free medium, and incubated with H4βAPP695 wt cells for 24 h prior to analysis of secreted Aβ, which was compared to the effect of 10 μM drug treatments without prior incubation with the THLE-3 cells. Caco-2 cells (ATCC) were plated in 12-well plates with Transwell inserts (Costar) at 70000 cells per well and grown for 21 days. The media volume of the apical and basal chambers was 0.5 and 1.5 mL, respectively. Transepithelial resistance was measured in each well and found to be >160 Ω/cm^2. Drugs at 40 μM and 20 μg/mL of lucifer yellow were added in serum-free medium to the apical chamber. Four hours later, the basal chamber media was harvested and used to measure lucifer yellow fluorescence to confirm monolayer integrity as well as for treatment of H4βAPP695 wt cells for 24 h prior to analysis of secreted Aβ, which was compared to the effect of direct addition of 10 μM of the corresponding drug.
The tumor promoter phorbal myristate acetate is an activator of protein kinase C (PKC) that has been reported to activate α-secretase activity. Thus, we wanted to determine if protein kinase C inhibitors could block the effect of compound 1 on Aβ secretion.

Caco-2 cells = test: Epithelial transcellular transport of drug activity through Caco-2 monolayers; type: in vitro ADME
Experimental: as §2
Monolayer integrity was confirmed by high levels of transcellular electrical resistance (>160 ohms/cm^2) and by transcellular impermeability to the fluorescent dye lucifer yellow. […] The concentration of each compound added to the upper chamber would lead to 10 μM in the lower chamber if equilibration was complete, and thus the activity of the lower chamber media was compared to the activity of 10 μM drug added directly to the H4βAPP695 wt cells. […] Compound 1 crossed the monolayer and the bottom chamber media led to a 27% reduction in Aβ production, yielding 38% of the theoretical activity. The compound with the most activity in the lower chamber was compound 48, which decreased Aβ production by 50%, with 71% of its theoretical activity. […] On the basis of the combined activity data from these last two studies, compound 48 was selected as the lead drug for in vivo study.

APP [5] = test: Western blot of APP processing products (sAPPα, sAPPβ, holoAPP, αCTF) in H4βAPP695 wt cells; type: cell-based, human

Question: How did the Aβ lowering activity (Aβ secretion [1]; 1 μM) turn out when O=C(NCCSCc1cccc(Cl)c1)c1c(Cl)cccc1Cl [Compound 1] was run?
Answer: displayed Aβ lowering activity at 1 μM

Question: And the “% β Decrease” value (Aβ secretion [1]; 10 μM, relative to vehicle treated control cells)?
Answer: 75.3%

Question: And the inhibition at 10 µM (Aβ secretion [1]; Homo sapiens, 24 h, 10 μM, relative to vehicle treated control cells, read-out: % β Decrease)?
Answer: 75.3 ± 11.6%

Question: What about the “secreted Aβ levels in primary neurons” value (Aβ secretion [2]) of the same compound?
Answer: effective in reducing secreted Aβ levels

Question: What about the “cellular full length (holo) APP level” value (APP [3]) of the same compound?
Answer: without altering holoAPP levels

Question: And the “increase of cellular α-CTF levels” value (APP [3])?
Answer: over 2 fold

Question: And the “increase of sAPPα levels” value (APP [3])?
Answer: over 3 fold

Question: What about the “sAPPα level” value (APP [3]) of the same compound?
Answer: caused an increase; also recorded: increased

Question: And the sAPPβ level (APP [3])?
Answer: without altering

Question: And the “αCTF level” value (APP [3])?
Answer: caused an increase; also recorded: increased

Question: What about the “α-secretase activity on direct addition to cell lysates” value (α-secretase) of the same compound?
Answer: no effect

Question: And the “increase in the ratio of active/pro ADAM9” value (ADAM9; 10 μM)?
Answer: 31%

Question: And the “active ADAM9 / processing of ADAM9” value (ADAM9; increasing doses)?
Answer: dose dependent increase; also recorded: promotes cellular processing

Question: And the “active form of ADAM17” value (ADAM17)?
Answer: did not observe much effect

Question: What about the “effect on Aβ secretion in presence of PKC inhibitors” value (Aβ secretion [4]) of the same compound?
Answer: not blocked by PKC inhibitors

Question: What about the “% theoretical activity” value (Caco-2 cells; % of activity passing through Caco-2 monolayer) of the same compound?
Answer: 38% and 38.4%

Question: And the inhibition at 10 µM (Caco-2 cells; Homo sapiens, Caco-2, 10 μM drug alone added directly to H4βAPP695 wt cells, read-out: transcellular transport No total Aβ (% decrease))?
Answer: 69.4%

Question: And the inhibition at up to 10 µM (Caco-2 cells; Homo sapiens, Caco-2, 4 h, lower chamber media after 4 h on Caco-2 monolayer, 10 μM if in equilibrium, read-out: transcellular transport Yes total Aβ (% decrease))?
Answer: 27%

Question: And the “time at which α-CTF increase is first observed” value (APP [5]; 10 μM)?
Answer: 2 h

Question: What about the “time to maximal α-CTF levels” value (APP [5]; 10 μM) of the same compound?
Answer: ≤ 8 h

Question: What about the “increase in cellular α-CTF in presence of cyclohexamide” value (APP [5]; 4 h treatment) of the same compound?
Answer: not blocked
